Laboratory results from ChEMBL document CHEMBL5150017, “Mechanism of Action and Structure-Activity Relationship of α-Conotoxin Mr1.1 at the Human α9α10 Nicotinic Acetylcholine Receptor” (J Med Chem, 2022).
Calls of active or inactive are those of the source. The rule behind the calls is not given here.

Test system: Mus musculus
Test: Analgesic activity in chronic constriction injury-induced mechanical pain mouse model assessed as increase in paw withdrawal latency at 60 mg/kg measured after 1 to 7 hrs
Assay type: functional, organism-based
Settings: time 1-7 hrs

NCC1(CC(=O)O)CCCCC1
Activity: Active
